Patent US10017506B2, “ATX modulating agents” (BIOGEN MA INC., priority 2012, dated 2018)
pIC50: −log10 of the molar value.

Molecular target: T1, Human ATX protein (Homo sapiens, UniProt Q13822)
T1 construct: made in house
Assay: ATX biochemical FRET assay with FS-3 substrate
Conditions: FRET substrate FS-3 2 μM, ATX 1.0 μg/mL, 30 minutes pre-incubation, 2 hours at room temperature; read-out: IC50
Source text: ATX (Autotaxin) is a 125 KDa glycoprotein with lysophospholipase D (LPLD) activity that generates the bioactive lipid lysophosphatidic acid (LPA) from lysophosphatidylcholine (LPC). The ATX biochemical assay utilizes a FRET (fluorescence resonance energy transfer) technology platform. The fluorescence signal of FRET substrate FS-3 is quenched due to intra-molecular FRET of a fluorophore to a non-fluorescing quencher (Ferguson, C. G., et al., Org Lett. 2006 May 11; 8(10): 2023-2026, which is incorporated by reference in its entirety). ATX catalyzes the hydrolysis of the substrate which separates the dabsyl quencher from the fluorescein reporter, which becomes fluorescent. The reaction is monitored by a SpectraMax M5 (Molecular Devices, Sunnyvale, Calif.) with at excitation wavelength 485 nm and emission wavelength […].
Fatty acid free-BSA (Sigma A8806): 10 mg/mL in H2O, stored at 4° C.
2×ATX assay buffer: 100 mM Tris, 280 mM NaCl, 10 mM KCl, 2 mM CaCl2, 2 mM MgCl2, pH 7.4.
Human ATX protein: expressed and purified in house. Stored at −80° C.
Substrate FS-3 (Echelon, L-2000): 100 μg in 77.74 μL H2O (1 mM stock), stored at −20° C.
384-well flat bottom plates—Corning #3575.
Compound dilution—All compounds were provided at 10 mM in 100% DMSO. In the first well, 2 μL of 10 mM compound was added to 78 μL of DMSO (1:40 dilution). In subsequent wells 3-fold dilution (total 10 dilutions) were performed.
1×ATX assay buffer was made up with a final concentration of 1 mg/mL fatty acid free-BSA using 2×ATX assay buffer, 10 mg/ml fatty acid free-BSA and ddH2O.
ATX protein was diluted with 1×ATX assay buffer to a concentration of 1.32 μg/mL (1.32×). 38 μL was added per well to the assay plate. The final concentration of ATX in the reaction as 1.0 μg/mL.
2 μL per well of compounds was transferred to provide the desired concentration. The plate was centrifuged, then incubated at room temperature for 30 minutes on the shaker.
Then, 10 μL was added per well to the assay plate. […] The plate was centrifuged. The plate was kept shaking at room temperature for 2 hours. Because FS-3 substrate is light sensitive, plates were kept covered and protected from light.
Fluorescence was measured using SpectraMax M5 (excitation at 485 nm/emission at 538 nm, top read).

pIC50	SMILES
≥ 7.00	CC(C)(C)[C@H]1CC[C@H](Nc2cc3cc(C(=O)NC45CCC(C(=O)O)(CC4)CC5)ccc3cn2)CC1 [Example 152, 4-(3-((trans-4-(tert-butyl)cyclohexyl)amino)isoquinoline-6-carboxamido)bicyclo[2.2.2]octane-1-carboxylic acid]
≥ 7.00	CC[C@H]1CC[C@@H](Oc2ccc3ccc(C(C)NC4CCC(C(=O)O)C4)cc3c2C(F)(F)F)CC1 (stereo partly drawn) [Example 131, 3-((1-(7-((cis-4-ethylcyclohexyl)oxy)-8-(trifluoromethyl)naphthalen-2-yl)ethyl)amino)cyclopentanecarboxylic acid]
≥ 6.30	CC[C@H]1CC[C@@H](Oc2ccc3ccc([C@@H](C)N[C@H]4C[C@@H](C(=O)O)C4(C)C)cc3c2C(F)(F)F)CC1 [Example 118d, (1R,3S)-3-(((R)-1-(7-((cis-4-ethylcyclohexyl)oxy)-8-(trifluoromethyl)naphthalen-2-yl)ethyl)amino)-2,2-dimethylcyclobutanecarboxylic acid]
≥ 7.00	CC[C@H]1CC[C@@H](Oc2ccc3ccc([C@H](C)N[C@H]4CC[C@@H](C(=O)O)CC4)cc3c2C(F)(F)F)CC1 [Example 135a, cis-4-(((S)-1-(7-((cis-4-ethylcyclohexyl)oxy)-8-(trifluoromethyl)naphthalen-2-yl)ethyl)amino)cyclohexanecarboxylic acid]
≥ 6.60	CC1(C)C(NCc2ccc3ccc(O[C@H]4CC[C@@H](C)CC4)c(C(F)(F)F)c3c2)CC1C(=O)O (stereo partly drawn) [Example 78, 2,2-dimethyl-3-(((7-((cis-4-methylcyclohexyl)oxy)-8-(trifluoromethyl)naphthalen-2-yl)methyl)amino)cyclobutanecarboxylic acid]
≥ 6.30	CC(N[C@H]1CC[C@H](C(=O)O)CC1)c1ccc2ccc(O[C@H]3CC[C@@H](C(F)(F)F)CC3)c(C(F)(F)F)c2c1 (stereo partly drawn) [Example 143, trans-4-((1-(8-(trifluoromethyl)-7-((cis-4-(trifluoromethyl)cyclohexyl)oxy)naphthalen-2-yl)ethyl)amino)cyclohexanecarboxylic acid]
≥ 6.30	O=C(O)C1CCC(NCc2ccc3ccc(O[C@H]4CC[C@@H](C(F)(F)F)CC4)c(C(F)(F)F)c3c2)C1 (stereo partly drawn) [Example 127, 3-(((8-(trifluoromethyl)-7-((cis-4-(trifluoromethyl)cyclohexyl)oxy)naphthalen-2-yl)methyl)amino)cyclopentanecarboxylic acid]
≥ 6.60	C[C@@H](N[C@H]1CC[C@@H](C(=O)O)CC1)c1ccc2ccc(O[C@H]3CC[C@@H](C(F)(F)F)CC3)c(C(F)(F)F)c2c1 [Example 136b, cis-4-(((R)-1-(8-(trifluoromethyl)-7-((cis-4-(trifluoromethyl)cyclohexyl)oxy)naphthalen-2-yl)ethyl)amino)cyclohexanecarboxylic acid]
≥ 6.60	CC[C@H]1CC[C@@H](Oc2ccc3ccc([C@@H](C)N[C@H]4CC[C@@H](C(=O)O)CC4)cc3c2C(F)(F)F)CC1 [Example 135b, cis-4-(((R)-1-(7-((cis-4-ethylcyclohexyl)oxy)-8-(trifluoromethyl)naphthalen-2-yl)ethyl)amino)cyclohexanecarboxylic acid]
≥ 7.00	CC[C@H]1CC[C@@H](Oc2ccc3ccc(C(C)NC4CC(C(=O)O)C4(C)C)cc3c2C(F)(F)F)CC1 (stereo partly drawn) [Example 59, 3-((1-(7-((cis-4-ethylcyclohexyl)oxy)-8-(trifluoromethyl)naphthalen-2-yl)ethyl)amino)-2,2-dimethylcyclobutanecarboxylic acid]
≥ 6.30	CC[C@H]1CC[C@@H](Oc2ccc3ccc(CN4CCC[C@H](CC(=O)O)C4)cc3c2C(F)(F)F)CC1 [Example 53, 2-((R)-1-((7-((cis-4-ethylcyclohexyl)oxy)-8-(trifluoromethyl)naphthalen-2-yl)methyl)piperidin-3-yl)acetic acid]
≥ 6.60	CC(N[C@H]1C[C@@H](C(=O)O)C1(C)C)c1ccc2ccc(O[C@H]3CC[C@@H](C)CC3)c(Cl)c2c1 (relative stereo) [Example 93, Cis-3-((1-(8-chloro-7-((cis-4-methylcyclohexyl)oxy)naphthalen-2-yl)ethyl)amino)-2,2-dimethylcyclobutanecarboxylic acid]

Same assay, conditions: IC50, FRET substrate FS-3 2 μM, ATX 1.0 μg/mL, 30 minutes pre-incubation, 2 hours at room temperature

SMILES	pIC50
CC(c1ccc2ccc(O[C@H]3CC[C@@H](C)CC3)c(Cl)c2c1)N1C2CCC1CC(C(=O)O)C2 (stereo partly drawn) [Example 90, 8-(1-(8-chloro-7-((cis-4-methylcyclohexyl)oxy)naphthalen-2-yl)ethyl)-8-azabicyclo[3.2.1]octane-3-carboxylic acid]	≥ 6.60
CC[C@H]1CC[C@@H](Oc2ccc3ccc(CN4C5CCCC4CC(C(=O)O)C5)cc3c2C#N)CC1 (stereo partly drawn) [Example 71, 9-((8-cyano-7-((cis-4-ethylcyclohexyl)oxy)naphthalen-2-yl)methyl)-9-azabicyclo[3.3.1]nonane-3-carboxylic acid]	≥ 7.00
C[C@H]1CC[C@@H](Oc2ccc3ccc(CN4C5CCC4CC(C(=O)O)C5)cc3c2C(F)(F)F)CC1 (stereo partly drawn) [Example 3, 8-[7-(cis-4-methyl-cyclohexyloxy)-8-trifluoromethyl-naphthalen-2-ylmethyl]-8-aza-bicyclo[3.2.1]octane-3-carboxylic acid]	≥ 7.00
C[C@H]1CC[C@@H](Oc2ccc3ccc(C(=O)N4C5CCC4CC(C(=O)O)C5)cc3c2C(F)(F)F)CC1 (relative stereo) [Example 24, 8-[7-(cis-4-methyl-cyclohexyloxy)-8-trifluoromethyl-naphthalene-2-carbonyl]-8-azabicyclo[3.2.1]octane-3-carboxylic acid]	≥ 6.60
C[C@H](c1ccc2ccc(O[C@H]3CC[C@@H](C)CC3)c(C(F)(F)F)c2c1)N1C2CCCC1CC(C(=O)O)C2 (single isomer, unassigned) [Example 5b]	≥ 7.00
CC(c1ccc2ccc(O[C@H]3CC[C@@H](C(F)(F)F)CC3)c(C#N)c2c1)N1C2CCC1CC(C(=O)O)C2 (stereo partly drawn) [Example 37, 8-(1-(8-cyano-7-((cis-4-(trifluoromethyl)cyclohexyl)oxy)naphthalen-2-yl)ethyl)-8-azabicyclo[3.2.1]octane-3-carboxylic acid]	≥ 7.00
O=C(O)C1CC2CCC(C1)N2Cc1ccc2ccc(O[C@H]3CC[C@@H](C(F)(F)F)CC3)c(Cl)c2c1 (stereo partly drawn) [Example 26, 8-((8-chloro-7-((cis-4-(trifluoromethyl)cyclohexyl)oxy)naphthalen-2-yl)methyl)-8-azabicyclo[3.2.1]octane-3-carboxylic acid]	≥ 6.60
C[C@@H](c1ccc2ccc(O[C@H]3CC[C@@H](C(F)(F)F)CC3)c(C(F)(F)F)c2c1)N1C2CCC1CC(C(=O)O)C2 (stereo partly drawn) [Example 12a, 8-{(S)-1-[7-(cis-4-trifluoromethyl-cyclohexyloxy)-8-trifluoromethyl-naphthalen-2-yl]-ethyl}-8-aza-bicyclo[3.2.1]octane-3-carboxylic acid]	≥ 6.30
CC(c1ccc2ccc(O[C@H]3CC[C@@H](C(F)(F)F)CC3)c(Cl)c2c1)N1C2CCCC1CC(C(=O)O)C2 (stereo partly drawn) [Example 30, 9-(1-(8-chloro-7-((cis-4-(trifluoromethyl)cyclohexyl)oxy)naphthalen-2-yl)ethyl)-9-azabicyclo[3.3.1]nonane-3-carboxylic acid]	≥ 6.60
C[C@H]1CC[C@@H](Oc2ccc3ccc(C(=O)N4C5CCCC4CC(C(=O)O)C5)cc3c2C(F)(F)F)CC1 (stereo partly shown) [Example 13, 9-[7-(4-methyl-cyclohexyloxy)-8-trifluoromethyl-naphthalene-2-carbonyl]-9-aza-bicyclo [3.3.1]nonane-3-carboxylic acid]	≥ 6.30
CC[C@H]1CC[C@@H](Oc2ccc3ccc([C@@H](C)N4C5CCCC4CC(C(=O)O)C5)cc3c2C(F)(F)F)CC1 (stereo partly drawn) [Example 133b, 9-((R)-1-(7-((cis-4-ethylcyclohexyl)oxy)-8-(trifluoromethyl)naphthalen-2-yl)ethyl)-9-azabicyclo[3.3.1]nonane-3-carboxylic acid]	≥ 6.60
CCC(c1ccc2ccc(O[C@H]3CC[C@@H](C)CC3)c(C(F)(F)F)c2c1)N1C2CCC1CC(C(=O)O)C2 (relative stereo) [Example 18, 8-(1-(7-((cis-4-methylcyclohexyl)oxy)-8-(trifluoromethyl)naphthalen-2-yl)propyl)-8-azabicyclo[3.2.1]octane-3-carboxylic acid]	≥ 6.60
CC(c1ccc2ccc(O[C@H]3CC[C@@H](C)CC3)c(C(F)F)c2c1)N1C2CCC1CC(C(=O)O)C2 (stereo partly drawn) [Example 87, 8-(1-(8-(difluoromethyl)-7-((cis-4-methylcyclohexyl)oxy)naphthalen-2-yl)ethyl)-8-azabicyclo[3.2.1]octane-3-carboxylic acid]	≥ 7.00
